Results reported in patent publication US12358893B2, “Metalloenzyme inhibitor compounds” (Corxel Pharmaceuticals Hong Kong Limited, priority 2019, dated 2025).
pIC50: −log10 of the molar value.

Columns and labels:
[1] = molecular target: T1, recombinant human CYP11B2 (Homo sapiens, UniProt P19099); assay: CYP11B2 enzyme assay with enzyme enriched microsomes, aldosterone measured by LC-MS; type: biochemical; conditions: microsomes from V79-4 cells; 11-deoxycorticosterone at Km; read-out: hCYP11B2 IC50
T1 construct: made in house; host or cells: V79-4 cells (Chinese hamster lung fibroblasts); enzyme-enriched microsomal fraction of the lysate
T1 sequence (P19099 25-503): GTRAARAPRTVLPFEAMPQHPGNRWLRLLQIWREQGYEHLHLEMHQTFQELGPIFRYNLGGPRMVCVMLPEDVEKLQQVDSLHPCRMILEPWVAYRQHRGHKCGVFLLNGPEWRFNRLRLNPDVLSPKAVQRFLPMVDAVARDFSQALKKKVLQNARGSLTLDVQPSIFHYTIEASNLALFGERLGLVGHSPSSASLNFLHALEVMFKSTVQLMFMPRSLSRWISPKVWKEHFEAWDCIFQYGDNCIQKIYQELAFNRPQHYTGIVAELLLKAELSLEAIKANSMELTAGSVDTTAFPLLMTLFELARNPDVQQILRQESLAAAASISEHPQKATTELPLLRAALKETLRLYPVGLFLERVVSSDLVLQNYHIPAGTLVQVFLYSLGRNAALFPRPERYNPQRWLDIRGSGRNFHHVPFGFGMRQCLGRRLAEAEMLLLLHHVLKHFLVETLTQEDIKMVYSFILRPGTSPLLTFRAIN
Procedure: (§1) V79-4 cells expressing recombinant andrenodoxin and andrenodoxin reductase with either recombinant human CYP11B2 or CYP11B1 were prepared according to methods previously described (LaSala et al 2009 Anal Bioch 394:56-61). An enzyme enriched microsomal fraction was prepared from cellular lysates and subsequently used as the enzyme source for determining inhibitor IC50s. The substrate Km values were experimentally determined for 11-deoxycorticosterone (CYP11B2 substrate) and 11-deoxycortisol (CYP11B1 substrate). Enzyme assays for inhibitor screening employed CYP11B2 and CYP11B1 enzyme enriched microsomes and were run at the Km of the respective substrates. Products of the enzyme reactions, aldosterone for CYP11B2 or cortisol for CYP11B1, were measured by LC-MS. Assays were run under conditions of less than 20% substrate turnover. Inhibitor IC50s were generated by determining the product formation in the absence or presence of inhibitor at various concentrations. In the absence of the test compound, the product formed (Pt) in each data set was defined as 100% activity. In the absence of enzyme, the product formed (Pb) in each data set was defined as 0% activity. The percent activity in the presence of each inhibitor was calculated according to the following equation: % activity=(P−Pb)/(Pt−Pb), where P=the product formed in the presence of the inhibitor. The IC50 value was defined as the inhibitor concentration causing a 50% decrease in activity relative to the no inhibitor control reaction.

[2] = molecular target: T2, recombinant human CYP11B1 (Homo sapiens, UniProt P15538); assay: CYP11B1 enzyme assay with enzyme enriched microsomes, cortisol measured by LC-MS; type: biochemical; conditions: microsomes from V79-4 cells; 11-deoxycortisol at Km; read-out: hCYP11B1 IC50
T2 construct: made in house; host or cells: V79-4 cells (Chinese hamster lung fibroblasts); enzyme-enriched microsomal fraction of the lysate
T2 sequence (P15538 25-503): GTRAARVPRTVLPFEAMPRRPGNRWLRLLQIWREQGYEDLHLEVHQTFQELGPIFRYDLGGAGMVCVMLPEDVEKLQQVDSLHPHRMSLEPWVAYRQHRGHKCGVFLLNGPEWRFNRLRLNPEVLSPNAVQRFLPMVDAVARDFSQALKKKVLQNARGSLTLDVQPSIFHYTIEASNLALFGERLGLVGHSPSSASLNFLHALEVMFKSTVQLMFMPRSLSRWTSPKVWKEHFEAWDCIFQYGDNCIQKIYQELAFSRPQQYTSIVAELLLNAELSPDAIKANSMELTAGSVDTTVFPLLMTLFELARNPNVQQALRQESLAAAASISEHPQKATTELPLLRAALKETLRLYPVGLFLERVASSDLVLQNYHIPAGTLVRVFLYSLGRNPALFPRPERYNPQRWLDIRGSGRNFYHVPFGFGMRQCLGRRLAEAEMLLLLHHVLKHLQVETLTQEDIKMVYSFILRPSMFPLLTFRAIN
Procedure: as §1

| pIC50 [1] | pIC50 [2] | Compound |
| --- | --- | --- |
| 7.00 to 9.00 | 6.00 to 7.00 | N#Cc1ccc2nc(-n3cnc4cc(OC(F)F)ccc43)n(C3CC3)c2c1 [Example 49, 1′-cyclopropyl-5-(difluoromethoxy)-1′H-[1,2′-bibenzo[d]imidazole]-6′-carbonitrile] |
| 7.00 to 9.00 | 5.00 to 6.00 | COc1cc2ncn(-c3nc4ccc(F)cc4n3C3CC3)c2cc1OC [Example 5, 1′-cyclopropyl-6′-fluoro-5,6-dimethoxy-1′H-1,2′-bibenzo[d]imidazole] |
| 7.00 to 9.00 | 6.00 to 7.00 | Fc1ccc2nc(-n3cnc4cc(C(F)(F)F)ccc43)n(C3CC3)c2c1 [Example 20, 1′-cyclopropyl-6′-fluoro-5-(trifluoromethyl)-1′H-1,2′-bibenzo[d]imidazole] |
| 7.00 to 9.00 | 5.00 to 6.00 | Fc1cc2ncn(-c3nc4ccc(F)c(F)c4n3C3CC3)c2cc1F [Example 15, 1′-cyclopropyl-5,6,6′,7′-tetrafluoro-1′H-1,2′-bibenzo[d]imidazole] |
| 5.00 to 6.00 | < 5.00 | CS(=O)(=O)Nc1ccc2ncn(-c3nc4cc(F)c(F)cc4n3C3CC3)c2c1 [Example 45, N-(1′-cyclopropyl-5′,6′-difluoro-1′H-[1,2′-bibenzo[d]imidazol]-6-yl) methanesulfonamide] |
| 7.00 to 9.00 | 5.00 to 6.00 | CCn1c(-n2cnc3cc(F)c(F)cc32)nc2ccc(C#N)cc21 [Example 22, 1′-ethyl-5,6-difluoro-1′H-[1,2′-bibenzo[d]imidazole]-6′-carbonitrile] |
| 6.00 to 7.00 | < 5.00 | CS(=O)(=O)Nc1ccc2c(c1)ncn2-c1nc2ccc(C#N)cc2n1C1CC1 [Example 47, N-(6′-cyano-1′-cyclopropyl-1′H-[1,2′-bibenzo[d]imidazol]-5-yl) methanesulfonamide] |
| 7.00 to 9.00 | 6.00 to 7.00 | COc1ccc2c(c1)ncn2-c1nc2ccc(F)cc2n1C1CC1 [Example 12, 1′-cyclopropyl-6′-fluoro-5-methoxy-1′H-1,2′-bibenzo[d]imidazole] |
| 7.00 to 9.00 | < 5.00 | Fc1cc2nc(-n3cnc4cnc(C(F)F)cc43)n(C3CC3)c2cc1F [Example 40, 1-(1-cyclopropyl-5,6-difluoro-1H-benzo[d]imidazol-2-yl)-6-(difluoromethyl)-1H-imidazo[4,5-c]pyridine] |
| 7.00 to 9.00 | 5.00 to 6.00 | Fc1ccc2ncn(-c3nc4ccc(F)cc4n3C3CC3)c2c1 [Example 19, 1′-cyclopropyl-6,6′-difluoro-1′H-1,2′-bibenzo[d]imidazole] |
| 7.00 to 9.00 | 5.00 to 6.00 | Fc1cc2nc(-n3cnc4ccncc43)n(C3CC3)c2cc1F [Example 36, 3-(1-cyclopropyl-5,6-difluoro-1H-benzo[d]imidazol-2-yl)-3H-imidazo[4,5-c] pyridine] |
| 5.00 to 6.00 | < 5.00 | Cc1cccc2c1ncn2-c1nc2ccc(F)cc2n1C1CC1 [Example 14, 1′-cyclopropyl-6′-fluoro-4-methyl-1′H-1,2′-bibenzo[d]imidazole] |
| 7.00 to 9.00 | 6.00 to 7.00 | Cc1ccc2ncn(-c3nc4ccc(F)cc4n3C3CC3)c2c1 [Example 9, 1′-cyclopropyl-6′-fluoro-6-methyl-1′H-1,2′-bibenzo[d]imidazole] |
| 7.00 to 9.00 | 6.00 to 7.00 | CCc1ccc2c(c1)ncn2-c1nc2ccc(F)cc2n1C1CC1 [Example 10, 1′-cyclopropyl-5-ethyl-6′-fluoro-1′H-1,2′-bibenzo[d]imidazole] |
| 7.00 to 9.00 | 6.00 to 7.00 | Fc1ccc2nc(-n3cnc4cc(OC(F)(F)F)ccc43)n(C3CC3)c2c1 [Example 27, 1′-cyclopropyl-6′-fluoro-5-(trifluoromethoxy)-1′H-1,2′-bibenzo[d]imidazole] |
| 7.00 to 9.00 | 5.00 to 6.00 | N#Cc1ccc2nc(-n3cnc4cc(F)c(F)cc43)n(C3CC3)c2c1 [Example 25, 1′-cyclopropyl-5,6-difluoro-1′H-[1,2′-bibenzo[d]imidazole]-6′-carbonitrile] |
| 6.00 to 7.00 | < 5.00 | N#Cc1ccc2ncn(-c3nc4cc(F)c(F)cc4n3C3CC3)c2c1 [Example 24, 1′-cyclopropyl-5′,6′-difluoro-1′H-[1,2′-bibenzo[d]imidazole]-6-carbonitrile] |
| 6.00 to 7.00 | < 5.00 | Fc1ccc2nc(-n3cnc4ccc(OC(F)(F)F)cc43)n(C3CC3)c2c1 [Example 28, 1′-cyclopropyl-6′-fluoro-6-(trifluoromethoxy)-1′H-1,2′-bibenzo[d]imidazole] |
| 7.00 to 9.00 | 5.00 to 6.00 | Fc1cc2nc(-n3cnc4cc(C(F)F)ncc43)n(C3CC3)c2cc1F [Example 41, 3-(1-cyclopropyl-5,6-difluoro-1H-benzo[d]imidazol-2-yl)-6-(difluoromethyl)-3H-imidazo[4,5-c]pyridine] |
| 7.00 to 9.00 | 5.00 to 6.00 | N#Cc1ccc2c(c1)ncn2-c1nc2cc(F)c(F)cc2n1C1CC1 [Example 23, 1′-cyclopropyl-5′,6′-difluoro-1′H-[1,2′-bibenzo[d]imidazole]-5-carbonitrile] |
| 5.00 to 6.00 | < 5.00 | O=C(O)c1cc2c(cn1)ncn2-c1nc2cc(F)c(F)cc2n1C1CC1 [Example 39, 1-(1-cyclopropyl-5,6-difluoro-1H-benzo[d]imidazol-2-yl)-1H-imidazo[4,5-c]pyridine-6-carboxylic acid] |
| 6.00 to 7.00 | < 5.00 | CS(=O)(=O)Nc1ccc2c(c1)ncn2-c1nc2cc(F)c(F)cc2n1C1CC1 [Example 46, N-(1′-cyclopropyl-5′,6′-difluoro-1′H-[1,2′-bibenzo[d]imidazol]-5-yl) methanesulfonamide] |
| 5.00 to 6.00 | < 5.00 | Fc1cc2nc(-n3cnc4ncccc43)n(C3CC3)c2cc1F [Example 34, 1-(1-cyclopropyl-5,6-difluoro-1H-benzo[d]imidazol-2-yl)-1H-imidazo[4,5-b]pyridine] |
| 7.00 to 9.00 | 5.00 to 6.00 | CCc1ccc2ncn(-c3nc4ccc(F)cc4n3C3CC3)c2c1 [Example 11, 1′-cyclopropyl-6-ethyl-6′-fluoro-1′H-1,2′-bibenzo[d]imidazole] |
| 7.00 to 9.00 | 5.00 to 6.00 | Fc1cc2nc(-n3cnc4cnccc43)n(C3CC3)c2cc1F [Example 35, 1-(1-cyclopropyl-5,6-difluoro-1H-benzo[d]imidazol-2-yl)-1H-imidazo[4,5-c]pyridine] |
| 7.00 to 9.00 | < 5.00 | N#Cc1ccc2nc(-n3cnc4cnccc43)n(C3CC3)c2c1 [Example 43, 1-cyclopropyl-2-(1H-imidazo[4,5-c]pyridin-1-yl)-1H-benzo[d]imidazole-6-carbonitrile] |
| 7.00 to 9.00 | 5.00 to 6.00 | Fc1ccc2nc(-n3cnc4ccc(C(F)(F)F)cc43)n(C3CC3)c2c1 [Example 21, 1′-cyclopropyl-6′-fluoro-6-(trifluoromethyl)-1′H-1,2′-bibenzo[d]imidazole] |
| 7.00 to 9.00 | 6.00 to 7.00 | Cc1ccc2c(c1)ncn2-c1nc2ccc(F)cc2n1C1CC1 [Example 8, 1′-cyclopropyl-6′-fluoro-5-methyl-1′H-1,2′-bibenzo[d]imidazole] |
| 7.00 to 9.00 | 5.00 to 6.00 | N#Cc1ccc2nc(-n3cnc4cc(F)c(F)cc43)n(C3CC3)c2n1 [Example 32, 3-cyclopropyl-2-(5,6-difluoro-1H-benzo[d]imidazol-1-yl)-3H-imidaz[4,5-b]pyridine-5-carbonitrile] |
| 5.00 to 6.00 | < 5.00 | CS(=O)(=O)Nc1ccc2ncn(-c3nc4ccc(F)c(F)c4n3C3CC3)c2c1 [Example 33, N-(1′-cyclopropyl-6′,7′-difluoro-1′H-[1,2′-bibenzo[d]imidazol]-6-yl) methanesulfonamide] |
